Calls of active or inactive are those of the source. The calls are words filed in the database; no cut-off is given here.
Key:
Format in all cases: functional
Bacillus subtilis [1] = test: Antibacterial activity against Bacillus subtilis at 50 ug/ml after 24 hr by agar cup-plate method; details: read-out: DIZ
Klebsiella aerogenes [2] = test: Antibacterial activity against Enterobacter aerogenesat 50 ug/ml after 24 hr by agar cup-plate method
Pseudomonas syringae [3] = test: Antibacterial activity against Pseudomonas syringae at 50 ug/ml after 24 hr by agar cup-plate method; details: read-out: DIZ
Rhizopus arrhizus [4] = test: Antifungal activity against Rhizopus oryzae at 50 ug/ml after 48 hr by paper disk diffusion method; details: for zone of inhibition at 50 µg/mL: read-out: IZ
Aspergillus flavus [5] = test: Antifungal activity against Aspergillus flavus at 100 ug/ml after 48 hr by paper disk diffusion method; details: read-out: IZ
Aspergillus niger [6] = test: Antifungal activity against Aspergillus niger at 100 ug/ml after 48 hr by paper disk diffusion method; details: read-out: IZ
Aspergillus flavus [7] = test: Antifungal activity against Aspergillus flavus at 50 ug/ml after 48 hr by paper disk diffusion method; details: read-out: IZ
Rhizopus arrhizus [8] = test: Antifungal activity against Rhizopus oryzae at 100 ug/ml after 48 hr by paper disk diffusion method; details: for zone of inhibition at 100 µg/mL: read-out: IZ
Paracoccus denitrificans [9] = test: Antibacterial activity against Paracoccus denitrificans at 50 ug/ml after 24 hr by agar cup-plate method; details: read-out: DIZ
Aspergillus niger [10] = test: Antifungal activity against Aspergillus niger at 50 ug/ml after 48 hr by paper disk diffusion method; details: read-out: IZ
Klebsiella aerogenes [11] = test: Antibacterial activity against Enterobacter aerogenes at 4 ug/ml after 24 hr by agar cup-plate method; details: read-out: DIZ
Pseudomonas syringae [12] = test: Antibacterial activity against Pseudomonas syringae at 4 ug/ml after 24 hr by agar cup-plate method; details: read-out: DIZ
Paracoccus denitrificans [13] = test: Antibacterial activity against Paracoccus denitrificans at 4 ug/ml after 24 hr by agar cup-plate method; details: read-out: DIZ
Bacillus subtilis [14] = test: Antibacterial activity against Bacillus subtilis at 4 ug/ml after 24 hr by agar cup-plate method; details: read-out: DIZ

SMILES	zone of inhibition at 50 µg/mL (Bacillus subtilis [1])	diameter of the inhibition zone (DIZ) (Klebsiella aerogenes [2])	zone of inhibition at 50 µg/mL (Pseudomonas syringae [3])	zone of inhibition at 50 µg/mL (Rhizopus arrhizus [4])	zone of inhibition at 100 µg/mL (Aspergillus flavus [5])	zone of inhibition at 100 µg/mL (Aspergillus niger [6])	zone of inhibition at 50 µg/mL (Aspergillus flavus [7])	zone of inhibition at 100 µg/mL (Rhizopus arrhizus [8])	zone of inhibition at 50 µg/mL (Paracoccus denitrificans [9])	zone of inhibition at 50 µg/mL (Aspergillus niger [10])	inhibition zone (IZ) (Rhizopus arrhizus [4])	inhibition zone (IZ) (Rhizopus arrhizus [8])	zone of inhibition at 4 µg/mL (Klebsiella aerogenes [11])	zone of inhibition at 4 µg/mL (Pseudomonas syringae [12])	zone of inhibition at 4 µg/mL (Paracoccus denitrificans [13])	zone of inhibition at 4 µg/mL (Bacillus subtilis [14])
O=C1C(Cl)=C(Nc2ccc(Cl)cc2)C(=O)C(Cl)=C1Nc1ccc(Cl)cc1	10 mm	13 mm	10 mm	3 mm	13 mm	10 mm	10 mm	10 mm	10 mm	10 mm	–	–	–	–	–	–
O=C1C(Cl)=C(Nc2ccccc2Cl)C(=O)C(Cl)=C1Nc1ccccc1Cl	13 mm	10 mm	10 mm	10 mm	13 mm	13 mm	10 mm	13 mm	13 mm	10 mm	–	–	–	–	–	–
O=C1C(Cl)=C(Nc2ccccc2)C(=O)C(Cl)=C1Nc1ccccc1	3 mm	inactive	10 mm	–	3 mm	10 mm	3 mm	3 mm	10 mm	3 mm	inactive	–	–	–	–	–
O=C1C(Cl)=C(Nc2ccc(Br)cc2)C(=O)C(Cl)=C1Nc1ccc(Br)cc1	13 mm	10 mm	10 mm	3 mm	13 mm	> 21 mm	10 mm	13 mm	13 mm	10 mm	–	–	–	–	–	–
O=C1C(Cl)=C(Nc2ccccc2F)C(=O)C(Cl)=C1Nc1ccccc1F	> 21 mm	13 mm	13 mm	10 mm	13 mm	> 21 mm	10 mm	13 mm	> 21 mm	13 mm	–	–	–	–	–	–
O=C1C(Cl)=C(Nc2ccc(F)cc2)C(=O)C(Cl)=C1Nc1ccc(F)cc1	> 21 mm	10 mm	13 mm	10 mm	13 mm	> 21 mm	13 mm	13 mm	13 mm	13 mm	–	–	–	–	–	–
COc1ccc(NC2=C(Cl)C(=O)C(Nc3ccc(OC)cc3)=C(Cl)C2=O)cc1	10 mm	3 mm	10 mm	–	13 mm	10 mm	10 mm	3 mm	13 mm	3 mm	inactive	–	–	–	–	–
Cc1ccc(NC2=C(Cl)C(=O)C(Nc3ccc(C)cc3)=C(Cl)C2=O)cc1	3 mm	inactive	3 mm	–	10 mm	10 mm	3 mm	–	10 mm	3 mm	inactive	inactive	–	–	–	–
CCn1cc(C(=O)O)c(=O)c2cc(F)c(N3CCNCC3)cc21 [NORFLOXACIN]	–	–	–	–	–	–	–	–	–	–	–	–	> 21 mm	> 21 mm	13 mm	> 21 mm
Cc1ccccc1NC1=C(Cl)C(=O)C(Nc2ccccc2C)=C(Cl)C1=O	3 mm	3 mm	3 mm	–	3 mm	3 mm	3 mm	–	3 mm	3 mm	inactive	inactive	–	–	–	–
COC1=CC(=O)C[C@@H](C)[C@]12Oc1c(Cl)c(OC)cc(OC)c1C2=O [GRISEOFULVIN]	–	–	–	> 21 mm	> 21 mm	> 21 mm	> 21 mm	> 21 mm	–	> 21 mm	–	–	–	–	–	–
COc1ccccc1NC1=C(Cl)C(=O)C(Nc2ccccc2OC)=C(Cl)C1=O	3 mm	10 mm	3 mm	3 mm	10 mm	13 mm	3 mm	10 mm	13 mm	10 mm	–	–	–	–	–	–

Source: ChEMBL document CHEMBL3044582, “Nontraditional approaches to the synthesis of some biologically active substituted p-benzoquinones” (2008)
